Assay results taken from patent US7202280B2, “Methods for the treatment and prevention of pancreatitis and for induction of liver regeneration” (priority 2002, dated 2007).

Key:
SSAT transgenic rats = test: Stability of the analogues in the liver of SSAT transgenic rats without or with MDL72527 (hepatic polyamine pools); assay type: in vivo, rat; details: MDL72527 50 mg/kg i.p. twice
Procedure: FIGS. 8A-8D. Hepatic polyamine pools in SSAT transgenic rats treated with methylated polyamine analogues without or with MDL72527. The rats were injected twice with MDL72527 (50 mg/kg i.p.) at 16-h interval. The polyamine analogues (25 mg/kg i.p.) were injected 2 and 8 h later. The animals were sacrificed 24 h after the last MDL72527 injection. There were three to four animals in each group. Put, putrescine; […] Spd, spermidine; Me-Spd, α-methylspermidine; […] The production of transgenic Wistar rats (UKUR30) and mice (UKU181) harboring metallothionein-SSAT fusion gene (Suppola, […]., Porter, C. W., and Jänne, J. (1999) Biochem. […] (2000) Proc. Natl. Acad. Sci. U.S.A. 97, 8290-8295; Lukkarinen, […]., and Alhonen, L. (1997) Stroke 28, 639-645). Partial hepatectomy was carried out according to the original method of Higgins and Anderson (Higgins, G. H., and Anderson, R. M. (1931) Arch. Pathol. 12, 186-202). Treatments before partial hepatectomy and the determination of DNA synthesis were carried out as in ([…]., Suppola, […]., and […]. Biol. Chem. 277, 39867-39872). Transgenic 10 weeks old male rats were injected twice with MDL72527 (50 mg/kg i.p.) at 16-h interval to inactivate PAO according to (Bolkenius, F. N., Bey, P., and Seiler, N. (1985) Biochim. Biophys. […] An aliquot of the homogenates was used for the polyamine assays. The homogenates were centrifuged (at 13 000×g, for 30 min, at 4° C.) and the supernatants were used for the enzyme activity assays. The Institutional Animal Care and Use Committee of the University of Kuopio and by the Provincial Government approved animal experiments. […] Merck (Darmstadt, Germany).

PAO = test: Hepatic PAO activity in SSAT transgenic rats after polyamine analogues without or with MDL72527; assay type: in vivo, rat; details: MDL72527 50 mg/kg i.p. twice, alone or in combination with the analogues
Procedure: FIGS. 9A–9B. Effect of polyamine analogues without or with MDL72527 on hepatic SSAT (FIG. 9A) and PAO (FIG. 9B) activities in SSAT transgenic rats. The rats were treated with the drugs as described in the legend for FIGS. 8A–8D. There were three to four animals in each group.
The production of transgenic Wistar rats (UKUR30) and mice (UKU181) harboring metallothionein-SSAT fusion gene (Suppola, S., Pietilä, M., Parkkinen, J. J., Korhonen, V. P., Alhonen, L., Halmekytö, M., Porter, C. W., and Jänne, J. (1999) Biochem. J. 338, 311–316) has been described earlier (Alhonen, L., Parkkinen, J. J., Keinänen, T., Sinervirta, R., Herzig, K. H., and Jänne, J. (2000) Proc. Natl. Acad. Sci. U.S.A. 97, 8290–8295; Lukkarinen, J., Gröhn, O., Sinervirta, R., Järvinen, A., Kauppinen, R. A., Jänne, J., and Alhonen, L. (1997) Stroke 28, 639–645). Partial hepatectomy was carried out according to the original method of Higgins and Anderson (Higgins, G. H., and Anderson, R. M. (1931) Arch. Pathol. 12, 186–202). […]
PAO activity was measured to verify the effectiveness of MDL72527 treatment and to determine whether the analogues have any effect on its activity. […]

C=C=CCNCCCCNCC=C=C [MDL72527, reference compound]
hepatic putrescine and N^1-acetylspermidine pools (SSAT transgenic rats): greatly reduced putrescine content and increased the pool of N^1-acetylspermidine
hepatic PAO activity (PAO): virtually completely inhibited PAO activity
